# Experimental data published in patent EP0026672B1, “Immobilized lactase and its use in hydrolysing lactose” (SUMITOMO CHEMICAL COMPANY, LIMITED, priority 1979, dated 1981).
# How the values were obtained:
# [1] = target: T1, lactase obtained from a strain of Aspergillus oryzae (extracellular enzyme, unimmobilized) (Aspergillus oryzae, UniProt Q2UCU3); assay: Km and Ki of the unimmobilized lactase, lactose hydrolysis; type: biochemical
# T1 construct: the lactase obtained from a strain of Aspergillus oryzae having; host or cells: Aspergillus oryzae (natural producer)
# T1 sequence (Q2UCU3 19-1005): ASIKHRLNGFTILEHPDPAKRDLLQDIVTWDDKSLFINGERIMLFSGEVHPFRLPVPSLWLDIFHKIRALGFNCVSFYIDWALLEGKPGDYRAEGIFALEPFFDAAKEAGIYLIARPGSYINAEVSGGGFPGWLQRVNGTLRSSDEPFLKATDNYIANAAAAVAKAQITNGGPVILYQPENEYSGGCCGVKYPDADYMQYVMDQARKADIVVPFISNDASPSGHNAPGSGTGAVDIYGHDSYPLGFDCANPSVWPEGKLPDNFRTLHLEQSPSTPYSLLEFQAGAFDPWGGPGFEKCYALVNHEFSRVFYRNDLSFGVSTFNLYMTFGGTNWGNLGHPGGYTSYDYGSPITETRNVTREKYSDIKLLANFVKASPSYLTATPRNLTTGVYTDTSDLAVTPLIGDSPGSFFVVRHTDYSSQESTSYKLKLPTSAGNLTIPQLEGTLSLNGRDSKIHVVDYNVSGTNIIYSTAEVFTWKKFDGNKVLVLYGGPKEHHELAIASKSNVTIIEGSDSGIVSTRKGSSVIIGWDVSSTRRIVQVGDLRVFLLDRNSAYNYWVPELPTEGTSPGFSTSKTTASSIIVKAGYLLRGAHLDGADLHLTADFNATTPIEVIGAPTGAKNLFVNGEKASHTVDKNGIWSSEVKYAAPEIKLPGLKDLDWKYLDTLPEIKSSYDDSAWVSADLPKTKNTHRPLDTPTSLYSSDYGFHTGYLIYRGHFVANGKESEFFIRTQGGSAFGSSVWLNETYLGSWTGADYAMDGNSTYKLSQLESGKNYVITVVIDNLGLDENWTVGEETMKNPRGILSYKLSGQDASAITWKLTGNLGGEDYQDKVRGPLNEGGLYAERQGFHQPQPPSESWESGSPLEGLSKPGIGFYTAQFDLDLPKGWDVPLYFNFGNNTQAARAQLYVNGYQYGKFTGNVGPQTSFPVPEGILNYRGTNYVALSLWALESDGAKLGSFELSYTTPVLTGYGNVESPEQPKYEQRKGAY
# Experimental: Ki=7±4 mole/m^3 (0.007±0.004 molell) (pH 4.5, 30°C, substrate; lactose). It is believed that the characteristics of the lactase are well defined by the above data, and some other properties are given below:
# In the present specification, 1 ILU is defined as the amount of lactase which produces 1 µ mole per minute of glucose at pH 4.5 at 30°C when a 13.3 w/v% of lactose solution is used as the substrate. The quantity of glucose thus prepared is defined by using glycose oxidase-peroxidase- dye system. When the measurement of the activity (unit) is carried out at a different pH or temperature, the pH or the temperature will specifically be given in each case.
# [2] = target: T2, immobilized lactase: Aspergillus oryzae lactase covalently attached (glutaraldehyde) on macroporous amphoteric phenol-formaldehyde ion-exchange resin (Aspergillus oryzae, UniProt Q2UCU3); assay: Km and Ki of the immobilized lactase, general characteristics; type: biochemical; details: pH 4.5, 30°C, substrate; lactose; value in brackets
# T2 construct: the lactase originated from Aspergillus oryzae is immobilized on one of the carriers; host or cells: Aspergillus oryzae (natural producer)
# Experimental: The immobilized lactase (0.1 to 0.3 ml) is suspended in a 0.05M acetate buffer solution (pH 4.5). To this solution, a solution of lactose in the same kind of buffer solution as above is added to give a 13.3 w/v % lactose solution. The solution was shaken at 30°C for 15 minutes with a shaker (100 rpm, shaking width; 3.5 cm). After the removal of the immobilized lactase by filtration, the content of the glucose in the filtrate is determined using glucose oxidase, peroxidase and dye system. The amount of the enzyme which produces 1 p mole of glucose in one minute is defined as 1 unit (1 ILU). The pH level and the temperature of the measurement of the activity will be stated in each case in the specification.
SMILES,"Ki ([1]; read-out: Inhibition constant by galactose Ki, pH 4.5, 30°C, substrate, lactose, value in brackets) [mM]",Inhibition constant by galactose Ki [2] [mol/L],"Km value ([1]; lactase dry powder of Example 3 (Shinnihon Kagaku Kogyo Co., 73 ILU/mg)) [mole/I]",Michaelis constant Km [2] [mole/I]
OC[C@H]1OC(O)[C@H](O)[C@@H](O)[C@H]1O (stereo partly shown) [galactose],7 ± 4,0.15 ± 0.1,,
OC[C@H]1O[C@@H](O[C@H]2[C@H](O)[C@@H](O)C(O)O[C@@H]2CO)[C@H](O)[C@@H](O)[C@H]1O (stereo partly shown) [lactose],,,0.11,0.15±0.1
